The results in this text go back to US20090087378A1, “Positron Tomography Method and Positron-Emitting Compound to Be Used Therein” (NARD INSTITUTE, LTD., priority 2006, published 2009).

Holding throughout (format): in vivo, rhesus monkey
A short description of data set [1]: Test for determining the amount of uptake of positron-emitting source compound (PET of brain after intravenous injection). The following applies: for kinetics in the brain: rhesus monkey, intravenous, PET. How it is done: A rhesus monkey (male, 5.5 kg in weight) was fasted overnight prior to the assay date. The monkey was seated on a monkey chair, and its head was fixed in a gantry of an animal PET camera (SHR-7700 manufactured by Hamamatsu Photonics K.K.) by a head positioner. Transmission measurement was performed for 30 minutes for […]. The injection products prepared in Production Examples 1-3 and 2 were then intravenously administered in doses of 77 ng/kg weight in terms of the amount of compound (Ia) and 230 ng/kg weight in terms of the amount of compound (Ib), respectively, and dynamic measurement was performed for 180 minutes. After the obtained images were reconstituted, a region of interest (ROI) was set in each part of the brain, and kinetics of radioactivity was determined in each region.

A further data set deals with T1, α7 nicotine receptor (Macaca mulatta, UniProt Q866A2).
T1 construct: from tissue; host or cells: brain of the living animal (in vivo PET)
As to the method:
(§1) After 30 minutes, compound (Ia) or (Ib) was administered by intravenous injection, and dynamic measurement was performed for 91 minutes. After the obtained images were reconstituted, a region of interest (ROI) was set in each part of the brain, and kinetics of radioactivity was determined in each region.

A further data set concerns α4β2 nicotine receptor. In words: Test for selectivity to α7 nicotine receptor: PET brain uptake after pre-administration of α4β2-selective agonist A85380. How it is done: as §1

Like-named read-outs stand apart in the source and are kept apart here.

T1 sequence (Q866A2 23-502): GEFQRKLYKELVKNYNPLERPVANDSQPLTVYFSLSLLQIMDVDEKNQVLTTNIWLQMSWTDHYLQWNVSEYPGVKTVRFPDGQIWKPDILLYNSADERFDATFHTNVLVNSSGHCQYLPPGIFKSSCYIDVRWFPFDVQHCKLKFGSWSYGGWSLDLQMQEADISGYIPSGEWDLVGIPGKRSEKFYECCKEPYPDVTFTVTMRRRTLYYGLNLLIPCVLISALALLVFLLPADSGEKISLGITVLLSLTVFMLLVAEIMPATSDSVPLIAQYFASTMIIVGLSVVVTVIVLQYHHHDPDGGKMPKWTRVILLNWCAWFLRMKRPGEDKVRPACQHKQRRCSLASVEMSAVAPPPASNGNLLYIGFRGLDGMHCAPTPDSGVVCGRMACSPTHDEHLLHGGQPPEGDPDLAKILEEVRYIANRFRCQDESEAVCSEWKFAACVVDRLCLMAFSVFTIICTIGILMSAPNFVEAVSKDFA

As for `[11CH3]c1ccc(OC(=O)N2CCN3CCC2CC3)cc1` [Compound (Ia), 4-[^11C]methyl-phenyl 1,4-diazabicyclo[3.2.2]nonane-4-carboxylate], the “time of peak value of radioactivity, most/other parts of the brain” value in data set [1] (after the administration, brain parts except hippocampus) is given as “about 10 minutes”. For the same compound, the “time of peak value of radioactivity, hippocampus” value in data set [1] (after the administration) came to 30 min. The “distribution of the concentrated compound in the brain” value in data set [1] (integrated images 40 to 60 minutes after the administration) is “high in hippocampus, corpus striatum, thalamus, cingulate gyrus and cerebral cortex, but low in cerebellum”. Further, the “kinetics in the brain” value in data set [1] is recorded as “relatively fast”. Moreover, on α7 nicotine receptor (SSR180711A 1 or 5 mg/kg i.v. 30 minutes before the compound, depending on the dose of the agonist), the “uptake into each part of the brain after pre-administered α7 nicotine receptor-selective agonist” value was “reduced to the level in the cerebellum”. The “binding selectivity to α7 nicotine receptor” value at α7 nicotine receptor (conclusion from blocking with SSR180711A and A85380) is on record as “selective binding to α7 nicotine receptor”. Also, the “effect of pre-administered α4β2 nicotine receptor-selective agonist on uptake into each part of the brain” value in the data set on α4β2 nicotine receptor (A85380 5 mg/kg i.v. 30 minutes before the compound) is “almost no effect”.
Consider `O=C(Oc1ccc([76Br])cc1)N1CCN2CCC1CC2` [Compound (Ib), 4-[^76Br]bromophenyl 1,4-diazabicyclo[3.2.2]nonane-4-carboxylate], for which, in data set [1] (after the administration), the “time of peak value of radioactivity, hippocampus” value was found to be 60 min. For the same compound, the “amount of uptake in the brain” value in data set [1] (compared with compound (Ia)) is “not as large as that of compound (Ia)”. Moreover, in data set [1], the “kinetics in the brain” value is “generally slow”. On α7 nicotine receptor (rhesus monkey, in vivo), the “binding selectivity to α7 nicotine receptor” value is recorded as “selective binding to α7 nicotine receptor” and the “uptake into each part of the brain after pre-administered α7 nicotine receptor-selective agonist” value is recorded as “reduced to the level in the cerebellum”. The “effect of pre-administered α4β2 nicotine receptor-selective agonist on uptake into each part of the brain” value in the data set on α4β2 nicotine receptor (rhesus monkey, in vivo) is reported as “almost no effect”.
